# Where two headings read alike, the source gives them in different places.
# What was measured:
# [1] = test system: HCV replicon; test: Anti-HCV replicon assay (EC50, luciferase readout); format: cell-based, hepatitis C virus; conditions: human hepatoma Huh-7 cell line harbouring a HCV replicon, 3 days incubation, luciferase signal
# Protocol: (§1) The anti HCV activity of specifically substituted pteridine derivatives was tested in a human hepatoma Huh-7 cell line harbouring a HCV replicon. The assay comprised the following steps:
# (§2) Step 1: compound preparation and serial dilution involved the following alternatives, depending upon the water solubility of pteridine derivative being tested:
# (§3) • 1. with respect to water soluble pteridine derivatives, 500 μL of solution in cell media (DMEM, 10% FBS, P/S, L-Glutamine) was prepared with a concentration that is twice the concentration of the starting final serial dilution concentration. 150 μL of the solution was added to the pre-specified wells in column 1 of a 96-well cell culture plate (PerkinElmer, white plate, cat. #6005181, for EC50 assay; black plate, cat. #6005182 for CC50 assay). The rest of the plate, i.e. columns 2-12, was filled with 100 μL of cell media. The plate was then placed on a Precision 2000 Workstation in order to start serial dilution. Pteridine compounds were diluted three times each step from column 1 to column 10. Column 11 was used as a blank control (no pteridine compound added). • 2. With respect to poorly water soluble pteridine derivatives, DMSO was used as a solvent, and serial dilution was performed in 50% DMSO in water, in a 384-well plate. A solution containing the relevant compound at 100-fold the concentration of the starting final serial dilution concentration was prepared in 50% DMSO in water and added to the pre-specified wells in column 1 of a polypropylene 384-well plate. This plate was then placed on a Precision 2000 Workstation in order to start serial dilution. After serial dilution, 2 μL of the solution was transferred from the 384-well plate to a 96-well cell culture plate containing 100 μL of cell media on a Biomek FX Workstation. The DMSO concentration in the final assay condition was 0.5% after cells have been added to the plate and the total volume in each well was brought to 200 μL. Step 2: to each well of the serial dilution plate prepared in step 1, 100 μL of cell media containing 6000 suspended Huh-7 HCV replicon cells was added with a Multidrop workstation. Plates were incubated for 3 days at 37° C. with 5% CO2. Step 3: detection: • 1) with respect to the EC50 assay, the media in a 96-well cell culture plate was aspirated with a Biotek EL405 plate-washer. A volume of 200 μL of a solution containing a 1:1 mixture of a cell-lysis buffer (commercially available from Promega, Luciferase Cell Culture Lysis 5X Reagent, cat. #E1531) and a luciferase substrate solution (commercially available from Promega, Luciferase Assay, cat. #E4550) was added to each well of the plate with Multidrop. The plate was incubated for 30 minutes at room temperature before the luminescence signal was measured with a TopCount plate-reader. • 2) with respect to the CC50 assay, 100 μL of a pre-mixed CellTiter-Glo (commercially available from Promega, cat. #G7572) solution was added directly to the cell culture in each well of the plate and the luminescence signal was measured with a TopCount plate-reader after 10 minutes of incubation at room temperature.
# (§4) Results are expressed by the following data: • the 50% effective concentration (EC50), i.e. the concentration that protects 50% of the cell monolayer from virus-induced cythopathic effect. • the 50% cytostatic concentration (CC50), i.e. the concentration that results in 50% inhibition of cell growth.
# [2] = CC50 assay (CellTiter-Glo) in Huh-7 HCV replicon cells; format: cell-based, human; conditions: human, 3 days incubation, 50% cytostatic concentration
# Protocol: as §1, §2, §3, §4
# [3] = Hepatitis C virus, 72 h, read-out: EC50
Structure (SMILES),"EC50 [1, 3] [µM]",CC50 at 3 days [2] [µM],"EC50 ([1]; Hepatitis C virus, Huh-7, 72 h) [µM]",EC50 [1] [µM]
"C[C@H](NC(=O)OC(C)(C)C)C(=O)Nc1ccc(-c2cnc3nc(N)nc(N4CCOCC4)c3n2)cc1 [Example 140, (S)-tert-butyl 1-(4-(2-amino-4-morpholinopteridin-6-yl)phenylamino)-1-oxopropan-2-ylcarbamate]",1 to 10,< 10,–,–
"CCCOc1nc(N)nc2ncc(-c3ccc(F)cc3)nc12 [Example 159, 6-(4-Fluorophenyl)-4-propoxy-pteridin-2-ylamine]",1 to 10,> 20,–,–
"CCOc1nc(N)nc2ncc(-c3ccc(C)cc3)nc12 [Example 54, 4-ethoxy-6-p-tolylpteridin-2-ylamine]",1 to 10,> 20,–,–
"Nc1nc(N2CCOCC2)c2nc(-c3cccc(OC(F)(F)F)c3)cnc2n1 [Example 84, 4-morpholino-6-(3-(trifluoromethoxy)phenyl)-pteridin-2-ylamine]",< 0.3,< 10,–,–
"COc1nc(N)nc2ncc(-c3ccc(F)cc3)nc12 [Example 149, 6-(4-Fluorophenyl)-4-methoxy-pteridin-2-ylamine]",0.3 to 1,> 20,–,–
"Nc1nc(N2CCOCC2)c2nc(-c3cccnc3)cnc2n1 [Example 108, 4-morpholino-6-(pyridin-3-yl)pteridin-2-ylamine]",0.3 to 1,10 to 20,–,–
"COc1ccccc1-c1cnc2nc(N)nc(N3CCOCC3)c2n1 [Example 80, 6-(2-methoxyphenyl)-4-morpholinopteridin-2-ylamine]",0.3 to 1,> 20,–,–
"Nc1nc(N2CCOCC2)c2nc(-c3ccc(C(F)(F)F)cc3C(F)(F)F)cnc2n1 [Example 93, 6-(2,4-bis(trifluoromethyl)phenyl)-4-morpholinopteridin-2-ylamine]",1 to 10,10 to 20,–,–
"N#Cc1cccc(-c2cnc3nc(N)nc(N4CCOCC4)c3n2)c1 [Example 85, 3-(2-amino-4-morpholinopteridin-6-yl)benzonitrile]",1 to 10,> 20,–,–
"Nc1nc(N2CCOCC2)c2nc(-c3cc4ccccc4s3)cnc2n1 [Example 123, 6-(benzo[b]thiophen-2-yl)-4-morpholinopteridin-2-ylamine]",–,< 10,0.3 to 1,–
"Nc1nc(N2CCOCC2)c2nc(-c3cc4ccccc4o3)cnc2n1 [Example 133, 6-(benzofuran-2-yl)-4-morpholinopteridin-2-ylamine]",0.3 to 1,> 20,–,–
"COC(=O)Nc1ccc(-c2cnc3nc(N)nc(N4CCOCC4)c3n2)cc1 [Example 129, methyl 4-(2-amino-4-morpholinopteridin-6-yl)phenylcarbamate]",< 0.3,< 10,–,–
"CCSc1nc(N)nc2ncc(-c3ccc(F)cc3)nc12 [Example 164, 4-ethylthio-6-(4-fluorophenyl)-pteridin-2-ylamine]",0.3 to 1,> 20,–,–
"Nc1nc(N2CCOCC2)c2nc(-c3ccoc3)cnc2n1 [Example 111, 6-(furan-3-yl)4-morpholinopteridin-2-ylamine]",–,> 20,1 to 10,–
"Nc1nc(N2CCOCC2)c2nc(-c3c(Cl)cccc3Cl)cnc2n1 [Example 95, 6-(2,6-dichlorophenyl)-4-morpholinopteridin-2-ylamine]",–,10 to 20,1 to 10,–
"CCOc1nc(N)nc2ncc(-c3ccc(OC)c(F)c3)nc12 [Example 3, 4-ethoxy-6-(3-fluoro-4-methoxyphenyl)pteridin-2-ylamine]",1 to 10,> 20,–,–
"Nc1nc(N2CCOCC2)c2nc(-c3ccc4c(c3)CC(=O)N4)cnc2n1 [Example 136, 5-(2-amino-4-morpholinopteridin-6-yl)indolin-2-one]",1 to 10,10 to 20,–,–
"CC(C)C(=O)Nc1ccc(-c2cnc3nc(N)nc(N4CCOCC4)c3n2)cc1 [Example 137, N-(4-(2-amino-4-morpholinopteridin-6-yl)phenyl)isobutyramide]",< 0.3,10 to 20,–,–

Structure (SMILES),"EC50 [1, 3] [µM]",CC50 at 3 days [2] [µM],"EC50 ([1]; Hepatitis C virus, Huh-7, 72 h) [µM]",EC50 [1] [µM]
"Nc1nc(N2CCOCC2)c2nc(-c3ccccc3C(F)(F)F)cnc2n1 [Example 79, 4-morpholino-6-(2-(trifluoromethyl)phenyl)pteridin-2-ylamine]",0.3 to 1,< 10,–,–
"Nc1nc(N2CCOCC2)c2nc(-c3ccccc3Cl)cnc2n1 [Example 78, 6-(2-chlorophenyl)-4-morpholinopteridin-2-ylamine]",–,< 10,0.3 to 1,–
"Nc1nc(N2CCOCC2)c2nc(-c3ccsc3)cnc2n1 [Example 110, 4-morpholino-6-(thiophen-3-yl)pteridin-2-ylamine]",1 to 10,> 20,–,–
"CCOc1nc(N)nc2ncc(-c3ccc(Cl)cc3)nc12 [Example 27, 6-(4-chlorophenyl)-4-ethoxypteridin-2-ylamine]",–,< 10,0.3 to 1,–
"Nc1nc(N2CCOCC2)c2nc(-c3cccnc3F)cnc2n1 [Example 109, 6-(2-fluoropyridin-3-yl)-4-morpholino-pteridin-2-ylamine]",–,10 to 20,1 to 10,–
"Nc1nc(N2CCOCC2)c2nc(-c3cccc(Cl)c3)cnc2n1 [Example 82, 6-(3-chlorophenyl)-4-morpholinopteridin-2-ylamine]",–,> 20,0.3 to 1,–
"Nc1nc(OCC2CC2)c2nc(-c3ccc(F)cc3)cnc2n1 [Example 157, 4-Cyclopropylmethoxy-6-(4-fluorophenyl)-pteridin-2-ylamine]",1 to 10,> 20,–,–
"Nc1nc(N)c2nc(-c3cccc(F)c3F)cnc2n1 [Example 143, 6-(2,3-difluoro-phenyl)-pteridine-2,4-diamine]",1 to 10,10 to 20,–,–
"CC(C)Oc1nc(N)nc2ncc(-c3ccc(F)cc3)nc12 [Example 150, 6-(4-Fluorophenyl)-4-isopropoxy-pteridin-2-ylamine]",< 0.3,> 20,–,–
"C[C@H](N)C(=O)Nc1ccc(-c2cnc3nc(N)nc(N4CCOCC4)c3n2)cc1 [Example 145, (S)-2-amino-N-(4-(2-amino-4-morpholinopteridin-6-yl)phenyl)-propanamide]",0.3 to 1,> 20,–,–
"CNC(=O)c1ccc(-c2cnc3nc(N)nc(N4CCOCC4)c3n2)cc1 [Example 114, 4-(2-amino-4-morpholinopteridin-6-yl)-N-methylbenzamide]",1 to 10,> 20,–,–
"CCOc1nc(N)nc2ncc(-c3ccc(S(C)(=O)=O)cc3)nc12 [Example 30, 4-ethoxy-6-(4-(methylsulfonyl)phenyl)pteridin-2-ylamine]",1 to 10,> 20,–,–
"Nc1nc(N2CCOCC2)c2nc(-c3cccc(F)c3F)cnc2n1 [Example 90, 6-(2,3-difluorophenyl)-4-morpholinopteridin-2-ylamine]",–,> 20,–,0.3 to 1
"CCOc1nc(N)nc2ncc(-c3ccc(O)cc3)nc12 [Example 57, 4-(2-amino-4-ethoxypteridin-6-yl)phenol]",–,> 20,1 to 10,–
"CCCCOc1nc(N)nc2ncc(-c3ccc(F)cc3)nc12 [Example 152, 4-Butoxy-6-(4-fluorophenyl)-pteridin-2-ylamine]",1 to 10,> 20,–,–
"Cc1cc(F)ccc1-c1cnc2nc(N)nc(N3CCOCC3)c2n1 [Example 120, 6-(4-fluoro-2-methylphenyl)-4-morpholinopteridin-2-ylamine]",1 to 10,10 to 20,–,–
"CCOc1nc(N)nc2ncc(-c3ccncc3)nc12 [Example 31, 4-ethoxy-6-(pyridin-4-yl)pteridin-2-ylamine]",0.3 to 1,< 10,–,–
"CC(C)(C)C(=O)Nc1ccc(-c2cnc3nc(N)nc(N4CCOCC4)c3n2)cc1 [Example 138, N-(4-(2-amino-4-morpholinopteridin-6-yl)phenyl)pivalamide]",1 to 10,10 to 20,–,–
